Results from the supplement of paper PMC10307832.

Assays:
Experiment in all cases: relative viability (nuclei count vs DMSO), 5 days (fraction); higher = more cells survive
[1] = compound: CCN1C(=O)C2=CC(=C(N=C2N(C1=O)C3CC3)N)C(=O)N + Cc1nc(Nc2ncc(C(=O)Nc3c(C)cccc3Cl)s2)cc(N2CCN(CCO)CC2)n1 [Dasatinib] (partner 0.075 µM)
In short: (§1)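 Relative viability equals treated-well nuclei counts divided by vehicle-well nuclei counts. Counts came from 4× images of lung cancer cell lines grown in 1536-well plates for 5 days after pin-tool dosing on the day after seeding. Dosing used one drug alone or a fixed anchor-drug dose plus five library-drug doses (not always all listed) in √10 steps, and values are medians of duplicate plates.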

[2] = compound: CCN1C(=O)C2=CC(=C(N=C2N(C1=O)C3CC3)N)C(=O)N + Nc1nc2[nH]cc(CCc3ccc(C(=O)N[C@@H](CCC(=O)O)C(=O)O)cc3)c2c(=O)[nH]1 [Pemetrexed] (partner 0.2 µM)
In short: as §1

[3] = compound: CCN1C(=O)C2=CC(=C(N=C2N(C1=O)C3CC3)N)C(=O)N + C[C@@H](Oc1cc(-c2cnn(C3CCNCC3)c2)cnc1N)c1c(Cl)ccc(F)c1Cl [Crizotinib] (partner 1 µM)
In short: as §1

[4] = compound: CCN1C(=O)C2=CC(=C(N=C2N(C1=O)C3CC3)N)C(=O)N + CCNC(=O)c1noc(-c2cc(C(C)C)c(O)cc2O)c1-c1ccc(CN2CCOCC2)cc1 [Luminespib] (partner 0.01 µM)
In short: as §1

[5] = compound: CCN1C(=O)C2=CC(=C(N=C2N(C1=O)C3CC3)N)C(=O)N + COc1cc2c(Oc3ccc(NC(=O)C4(C(=O)Nc5ccc(F)cc5)CC4)cc3F)ccnc2cc1OCCCN1CCOCC1 [Foretinib] (partner 0.25 µM)
In short: as §1

[6] = compound: CCN1C(=O)C2=CC(=C(N=C2N(C1=O)C3CC3)N)C(=O)N + N=C(N)NC(=N)NCCc1ccccc1 [Phenformin] (partner 250 µM)
In short: as §1

[7] = compound: CCN1C(=O)C2=CC(=C(N=C2N(C1=O)C3CC3)N)C(=O)N + CS(=O)(=O)CCNCc1ccc(-c2ccc3ncnc(Nc4ccc(OCc5cccc(F)c5)c(Cl)c4)c3c2)o1 [Lapatinib] (partner 2 µM)
In short: as §1

[8] = compound: CCN1C(=O)C2=CC(=C(N=C2N(C1=O)C3CC3)N)C(=O)N + CS(=O)(=O)N1CCN(Cc2cc3nc(-c4cccc5[nH]ncc45)nc(N4CCOCC4)c3s2)CC1 [Pictilisib] (partner 1 µM)
In short: as §1

[9] = compound: CCN1C(=O)C2=CC(=C(N=C2N(C1=O)C3CC3)N)C(=O)N + C[C@]1(O)C[C@@H](c2nc(-c3ccc4ccc(-c5ccccc5)nc4c3)c3c(N)nccn32)C1 [Linsitinib] (partner 1 µM)
In short: as §1

[10] = compound: CCN1C(=O)C2=CC(=C(N=C2N(C1=O)C3CC3)N)C(=O)N + COc1cccc2cc(-c3nc([C@H]4CC[C@H](C(=O)O)CC4)n4ncnc(N)c34)[nH]c12 [OSI-027] (partner 0.5 µM)
In short: as §1

[11] = compound: CCN1C(=O)C2=CC(=C(N=C2N(C1=O)C3CC3)N)C(=O)N + Cc1nc(NC(=O)N2CCC[C@H]2C(N)=O)sc1-c1ccnc(C(C)(C)C(F)(F)F)c1 [Alpelisib] (partner 2 µM)
In short: as §1

[12] = compound: CCN1C(=O)C2=CC(=C(N=C2N(C1=O)C3CC3)N)C(=O)N + CC(C)C[C@H](NC(=O)[C@H](Cc1ccccc1)NC(=O)c1cnccn1)B(O)O [Bortezomib] (partner 0.002 µM)
In short: as §1

[13] = compound: CCN1C(=O)C2=CC(=C(N=C2N(C1=O)C3CC3)N)C(=O)N
In short: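 Hoechst staining, done together with fixation and permeabilisation, marked nuclei for 4× imaging and MetaXpress counting. This followed 5 days without medium change after lung cancer cell lines, kept overnight at 37 °C in 1536-well plates, were pinned with five library-drug doses (not always all listed) spaced by √10 on vehicle-anchored plates. Viability is the ratio of treated-well to vehicle-well nuclei, expressed as a median across plates. Plates passed only at control CV below 25% with at least one doubling.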

[14] = compound: CCN1C(=O)C2=CC(=C(N=C2N(C1=O)C3CC3)N)C(=O)N + Cc1cc(Nc2cc(N3CCN(C)CC3)nc(Sc3ccc(NC(=O)C4CC4)cc3)n2)n[nH]1 [Tozasertib] (partner 0.1 µM)
In short: as §1

With NCI-H1563 the relative viability ([1]; first compound 0.253 µM) was 0.467, the relative viability ([1]; first compound 0.8 µM) was 0.41 and the relative viability ([1]; first compound 2.53 µM) was 0.46. The relative viability ([1]; first compound 8 µM) was 0.422, the relative viability ([2]; first compound 0.253 µM) was 0.762 and the relative viability ([2]; first compound 0.8 µM) was 0.799. For the same cell line, the relative viability ([2]; first compound 2.53 µM) was 0.965, the relative viability ([2]; first compound 8 µM) was 0.742 and the relative viability ([3]; first compound 0.253 µM) was 0.907. For the same cell line, the relative viability ([3]; first compound 0.8 µM) was 0.881, the relative viability ([3]; first compound 2.53 µM) was 0.991 and the relative viability ([3]; first compound 8 µM) was 0.811. For the same cell line, the relative viability ([4]; first compound 0.253 µM) was 0.538, the relative viability ([4]; first compound 0.8 µM) was 0.509 and the relative viability ([4]; first compound 2.53 µM) was 0.573. The relative viability ([4]; first compound 8 µM) was 0.542, the relative viability ([5]; first compound 0.253 µM) was 0.901 and the relative viability ([5]; first compound 0.8 µM) was 0.926. The relative viability ([5]; first compound 2.53 µM) was 0.933, the relative viability ([5]; first compound 8 µM) was 1.01 and the relative viability ([6]; first compound 0.253 µM) was 0.653. For the same cell line, the relative viability ([6]; first compound 0.8 µM) was 0.611, the relative viability ([6]; first compound 2.53 µM) was 0.651 and the relative viability ([6]; first compound 8 µM) was 0.639. For the same cell line, the relative viability ([7]; first compound 0.253 µM) was 0.808, the relative viability ([7]; first compound 0.8 µM) was 0.91 and the relative viability ([7]; first compound 2.53 µM) was 0.95. The relative viability ([7]; first compound 8 µM) was 0.885, the relative viability ([8]; first compound 0.253 µM) was 0.648 and the relative viability ([8]; first compound 0.8 µM) was 0.618. The relative viability ([8]; first compound 2.53 µM) was 0.728, the relative viability ([8]; first compound 8 µM) was 0.616 and the relative viability ([9]; first compound 0.253 µM) was 1.17. It also gave a relative viability ([9]; first compound 0.8 µM) of 1.1, a relative viability ([9]; first compound 2.53 µM) of 1.26 and a relative viability ([9]; first compound 8 µM) of 1.04. The relative viability ([10]; first compound 0.253 µM) was 0.743, the relative viability ([10]; first compound 0.8 µM) was 0.805 and the relative viability ([10]; first compound 2.53 µM) was 0.759. The relative viability ([10]; first compound 8 µM) was 0.795, the relative viability ([11]; first compound 0.253 µM) was 0.983 and the relative viability ([11]; first compound 0.8 µM) was 0.982. For the same cell line, the relative viability ([11]; first compound 2.53 µM) was 0.913, the relative viability ([11]; first compound 8 µM) was 0.783 and the relative viability ([12]; first compound 0.253 µM) was 0.919. It also gave a relative viability ([12]; first compound 0.8 µM) of 0.871, a relative viability ([12]; first compound 2.53 µM) of 0.83 and a relative viability ([12]; first compound 8 µM) of 0.681. For the same cell line, the relative viability ([13]; 0.253 µM) was 0.975, the relative viability ([13]; 0.8 µM) was 1 and the relative viability ([13]; 2.53 µM) was 0.955. For the same cell line, the relative viability ([13]; 8 µM) was 0.929.

For NCI-H1623, the relative viability ([1]; first compound 0.253 µM) was 0.518, the relative viability ([1]; first compound 0.8 µM) was 0.589 and the relative viability ([1]; first compound 2.53 µM) was 0.627. It also gave a relative viability ([1]; first compound 8 µM) of 0.595, a relative viability ([4]; first compound 0.253 µM) of 0.454 and a relative viability ([4]; first compound 0.8 µM) of 0.452. For the same cell line, the relative viability ([4]; first compound 2.53 µM) was 0.546, the relative viability ([4]; first compound 8 µM) was 0.473 and the relative viability ([5]; first compound 0.253 µM) was 0.856. For the same cell line, the relative viability ([5]; first compound 0.8 µM) was 0.862, the relative viability ([5]; first compound 2.53 µM) was 0.94 and the relative viability ([5]; first compound 8 µM) was 0.939. For the same cell line, the relative viability ([6]; first compound 0.253 µM) was 0.514, the relative viability ([6]; first compound 0.8 µM) was 0.59 and the relative viability ([6]; first compound 2.53 µM) was 0.63. For the same cell line, the relative viability ([6]; first compound 8 µM) was 0.567, the relative viability ([10]; first compound 0.253 µM) was 0.439 and the relative viability ([10]; first compound 0.8 µM) was 0.428. It also gave a relative viability ([10]; first compound 2.53 µM) of 0.455, a relative viability ([10]; first compound 8 µM) of 0.446 and a relative viability ([14]; first compound 0.253 µM) of 0.405. For the same cell line, the relative viability ([14]; first compound 0.8 µM) was 0.442, the relative viability ([14]; first compound 2.53 µM) was 0.438 and the relative viability ([14]; first compound 8 µM) was 0.48. For the same cell line, the relative viability ([13]; 0.253 µM) was 0.922, the relative viability ([13]; 0.8 µM) was 0.992 and the relative viability ([13]; 2.53 µM) was 1.02. It also gave a relative viability ([13]; 8 µM) of 1.13.
